How the values were obtained:
[1] = Radiometal complex stability (PBS, EDTA challenge, human serum), ITLC; conditions: 1 h at 37 °C, n = 3
Method: The radiochemical stability to transchelation was assessed by incubation of the radiolabeled peptide either with 1000× molar excess of EDTA or by incubation in human serum for 1 h at 37 °C. Incubation of radiolabeled peptide in PBS was used as control. The leakage of radiometal from the radiometal-chelate was determined with ITLC.

[2] = Biodistribution in mice bearing PC-3 tumors; conditions: Balb/c nu/nu, mouse, iv, total radioactivity, n = 4; for tissue uptake at 1 h: 1 h pi; for tissue uptake at 4 h: 4 h pi; for tissue uptake at 24 h: 24 h pi
Method: (§1) Biodistribution was conducted in Balb/c nu/nu mice (Scanbur A/S, Stockholm, Sweden), implanted subcutaneously in their flanks with PC-3 cells (6 × 10^6 cells/mouse) 3–4 weeks before the study. […] Biodistributions were conducted at 1 h pi for both control groups.

[3] = tested on: PC-3 tumors (GRPR-positive); test: Biodistribution in mice bearing PC-3 tumors; conditions: 1 h pi, n = 4
Method: as §1

[4] = Biodistribution in negative control mice bearing DU-145 tumors; assay type: in vivo; conditions: Balb/c nu/nu, mouse, iv, 40 pmol, total radioactivity, 1 h pi, n = 4
Method: as §1

[5] = In vivo metabolic stability in peripheral mice blood, HPLC; conditions: 5 min pi
Method: (§2) Pills were ground to a fine powder in a mortar, divided, and suspended in tab water to individual 12 mg/200 mL doses of pill per animal administered per os (Entresto® group) [35].
(§3) The in vivo stability was determined in healthy male Swiss albino mice (12 mice in total, body weights 30 ± 5 g). Briefly, each radiolabeled peptide was injected as a bolus (100 μL, 11–22 MBq, 3 nmol of total peptide in saline/EtOH 9/1 v/v) in the tail vein of mice either untreated (controls) or 20 min after having received per os a slurry of an Entresto® pill (individual 12 mg/200 mL doses of pill per animal; Entresto®-group; Novartis, Basel, Switzerland), as previously described [34, 35]. Blood was collected 5 min post-injection (pi) in a chilled syringe directly from the heart (0.5–1 mL) and samples were processed prior to being analyzed by HPLC for the detection of forming radiometabolites, as previously described [25, 35]. For analyses, an XBridge Shield RP18 (5 μm, 4.6 mm × 20 mm) column (Waters, Vienna, Austria) was eluted at a flow rate of 1 mL/min with 0.1% TFA in H2O (A) and MeCN (B) with the following linear gradient system: 100%A/0%B at 0 min, with B linearly increasing by 1%/min to 60%A/40%B (system 2).

in vivo = conditions: Balb/c nu/nu, mouse, iv, 40 pmol, total radioactivity
Method: as §1

[6] = mouse, in vivo
Method: as §2, §3

[7] = PC-3 tumor, 40 pmol, Tumor (PC-3) uptake
[8] = kidneys, 40 pmol, Kidneys uptake
[9] = pancreas, 40 pmol, Pancreas uptake
[10] = small intestine, 40 pmol, Small intestine uptake

## CC(C)C[C@H](NC(=O)C[C@H](O)[C@H](CC(C)C)NC(=O)[C@H](Cc1c[nH]cn1)NC(=O)CN(C)C(=O)[C@@H](NC(=O)[C@H](C)NC(=O)[C@H](Cc1c[nH]c2ccccc12)NC(=O)[C@H](CCC(N)=O)NC(=O)[C@@H](Cc1ccccc1)NC(=O)COCCOCCNC(=O)CCC(C(=O)O)N1CCN(CC(=O)O)CCN(CC(=O)O)CCN(CC(=O)O)CC1)C(C)C)C(N)=O (mixture of isomers) [[^111In]In-AU-RM26-M1, [^111In]In-DOTAGA-PEG2-(Sar^11)RM26, metal not drawn]
[1]; 1000× molar excess of EDTA
  Radiochemical stability, % protein-associated activity, EDTA: 98.7 ± 0.3%
[1]; PBS control
  Radiochemical stability, % protein-associated activity, PBS: 100.0 ± 0.3%
[1]; human serum
  Radiochemical stability, % protein-associated activity, Serum: 99.2 ± 0.3%
[2]; [7]
  tissue uptake at 1 h: 7 ± 0.7 %ID/g
  tissue uptake at 4 h: 5.7 ± 1.8 %ID/g
  tissue uptake at 24 h: 1.8 ± 0.6 %ID/g
[2]; PC-3 tumor, with unlabeled NOTA-PEG2-RM26, 5 nmol (in vivo GRPR blocking), PC-3 tumor uptake, GRPR-blocking group, excess unlabeled NOTA-PEG2-RM26 (5 nmol)
  tissue uptake at 1 h: 0.9 ± 0.6 %ID/g
[2]; blood, 40 pmol, Blood uptake
  tissue uptake at 1 h: 0.6 ± 0.1 %ID/g
  tissue uptake at 4 h: 0.11 ± 0.07 %ID/g
  tissue uptake at 24 h: 0.02 ± 0.01 %ID/g
[2]; bone, 40 pmol, Bone uptake
  tissue uptake at 1 h: 0.17 ± 0.09 %ID/g
  tissue uptake at 4 h: 0.09 ± 0.03 %ID/g
  tissue uptake at 24 h: 0.06 ± 0.03 %ID/g
[2]; [8]
  tissue uptake at 1 h: 7.2 ± 0.9 %ID/g
  tissue uptake at 4 h: 6 ± 1 %ID/g
  tissue uptake at 24 h: 3 ± 0.9 %ID/g
[2]; liver, 40 pmol, Liver uptake
  tissue uptake at 1 h: 0.55 ± 0.04 %ID/g
  tissue uptake at 4 h: 0.24 ± 0.02 %ID/g
  tissue uptake at 24 h: 0.1 ± 0.03 %ID/g
[2]; lungs, 40 pmol, Lungs uptake
  tissue uptake at 1 h: 0.46 ± 0.09 %ID/g
  tissue uptake at 4 h: 0.17 ± 0.06 %ID/g
  tissue uptake at 24 h: 0.03 ± 0.03 %ID/g
[2]; muscle, 40 pmol, Muscle uptake
  tissue uptake at 1 h: 0.15 ± 0.08 %ID/g
  tissue uptake at 4 h: 0.13 ± 0.05 %ID/g
  tissue uptake at 24 h: 0.01 ± 0.01 %ID/g
[2]; [9]
  tissue uptake at 1 h: 2.2 ± 0.6 %ID/g
  tissue uptake at 4 h: 0.29 ± 0.02 %ID/g
  tissue uptake at 24 h: 0.03 ± 0.01 %ID/g
[2]; pancreas, with unlabeled NOTA-PEG2-RM26, 5 nmol (in vivo GRPR blocking), pancreas uptake, blocked group, excess unlabeled NOTA-PEG2-RM26 (5 nmol)
  tissue uptake at 1 h: 0.3 ± 0.2 %ID/g
[2]; [10]
  tissue uptake at 1 h: 1.1 ± 0.6 %ID/g
  tissue uptake at 4 h: 0.3 ± 0.2 %ID/g
  tissue uptake at 24 h: 0.03 ± 0.01 %ID/g
[2]; spleen, 40 pmol, Spleen uptake
  tissue uptake at 1 h: 0.3 ± 0.2 %ID/g
  tissue uptake at 4 h: 0.22 ± 0.07 %ID/g
  tissue uptake at 24 h: 0.1 ± 0.03 %ID/g
[3]
  Pancreas uptake: 2.23 ± 0.56 %IA/g
[4]; DU-145 tumor, read-out: uptake in DU-145 tumors (GRPR-negative)
  tissue uptake at 1 h: 0.9 ± 0.2 %ID/g
[4]; pancreas, DU-145 tumor-bearing mice, read-out: pancreas uptake, negative control group
  tissue uptake at 1 h: 2.2 ± 0.7 %ID/g
[5]; Entresto-treated group (NEP inhibition, per os)
  % intact radioligand in peripheral mice blood: 91 ± 2%
[5]; control (untreated) mice
  % intact radioligand in peripheral mice blood: 88 ± 8%

## CC(C)C[C@H](NC(=O)C[C@H](O)[C@H](CC(C)C)NC(=O)[C@H](Cc1c[nH]cn1)NC(=O)CNC(=O)[C@@H](NC(=O)[C@H](C)NC(=O)[C@H](Cc1c[nH]c2ccccc12)NC(=O)[C@H](CCC(N)=O)NC(=O)[C@@H](Cc1ccccc1)NC(=O)COCCOCCNC(=O)CCC(C(=O)O)N1CCN(CC(=O)O)CCN(CC(=O)O)CCN(CC(=O)O)CC1)C(C)C)C(N)=O (mixture of isomers) [[^111In]In-DOTAGA-PEG2-RM26, metal not drawn]
In vivo; Blood uptake
  tissue uptake at 1 h: 0.5 ± 0.3 %ID/g
  tissue uptake at 4 h: 0.07 ± 0.01 %ID/g
  tissue uptake at 24 h: 0.015 ± 0.003 %ID/g
In vivo; Bone uptake
  tissue uptake at 1 h: 0.13 ± 0.08 %ID/g
  tissue uptake at 4 h: 0.07 ± 0.04 %ID/g
  tissue uptake at 24 h: 0.04 ± 0.03 %ID/g
In vivo; Kidneys uptake
  tissue uptake at 1 h: 4.6 ± 0.9 %ID/g
  tissue uptake at 4 h: 3.5 ± 0.7 %ID/g
  tissue uptake at 24 h: 2 ± 0.5 %ID/g
In vivo; Liver uptake
  tissue uptake at 1 h: 0.5 ± 0.1 %ID/g
  tissue uptake at 4 h: 0.23 ± 0.05 %ID/g
  tissue uptake at 24 h: 0.16 ± 0.02 %ID/g
In vivo; Lungs uptake
  tissue uptake at 1 h: 0.5 ± 0.2 %ID/g
  tissue uptake at 4 h: 0.11 ± 0.02 %ID/g
  tissue uptake at 24 h: 0.04 ± 0.01 %ID/g
In vivo; Muscle uptake
  tissue uptake at 1 h: 0.11 ± 0.08 %ID/g
  tissue uptake at 4 h: 0.04 ± 0.01 %ID/g
  tissue uptake at 24 h: 0.01 ± 0.01 %ID/g
In vivo; Pancreas uptake
  tissue uptake at 1 h: 1.9 ± 1 %ID/g
  tissue uptake at 4 h: 0.18 ± 0.04 %ID/g
  tissue uptake at 24 h: 0.03 ± 0.01 %ID/g
In vivo; Small intestine uptake
  tissue uptake at 1 h: 0.8 ± 0.2 %ID/g
  tissue uptake at 4 h: 0.13 ± 0.04 %ID/g
  tissue uptake at 24 h: 0.05 ± 0.05 %ID/g
In vivo; Spleen uptake
  tissue uptake at 1 h: 0.21 ± 0.06 %ID/g
  tissue uptake at 4 h: 0.1 ± 0.02 %ID/g
  tissue uptake at 24 h: 0.1 ± 0.03 %ID/g
In vivo; Tumor (PC-3) uptake
  tissue uptake at 1 h: 6 ± 0.4 %ID/g
  tissue uptake at 4 h: 3 ± 1 %ID/g
  tissue uptake at 24 h: 1.2 ± 0.4 %ID/g
[6]
  % degraded in peripheral mice blood: about 30%

— article PMC10377574, “Preclinical Characterization of a Stabilized Gastrin-Releasing Peptide Receptor Antagonist for Targeted Cancer Theranostics” (Biomolecules, 2023)
